Values quoted from earlier work, collected in US20070135435A1, “Certain chemical entities, compositions, and methods” (priority 2005, published 2007).

System: A549 cells

Row | Compound | GI50
1 | O=c1[nH]cc(F)c(=O)[nH]1 [5-fluorouracil] | 1 µM
2 | COc1cccc2c1C(=O)c1c(O)c3c(c(O)c1C2=O)C[C@@](O)(C(=O)CO)C[C@@H]3O[C@H]1C[C@H](N)[C@H](O)[C@H](C)O1 [doxorubicin] | 0.063 µM
3 | NC(=O)NO [hydroxyurea] | 500 µM
4 | CC(=O)O[C@H]1C(=O)[C@@]2(C)[C@H]([C@H](OC(=O)c3ccccc3)[C@]3(O)C[C@H](OC(=O)[C@H](O)[C@@H](NC(=O)c4ccccc4)c4ccccc4)C(C)=C1C3(C)C)[C@]1(OC(C)=O)CO[C@@H]1C[C@@H]2O [paclitaxel] | 0.004 µM
